{
  "source": "paper PMC5549559",
  "about": "(Cellular signalling, 2015)",
  "key": {"[1]": {"test_system": "kappa opioid receptor (KOR)", "assay": "GloSensor cAMP assay", "type": "cell-based"}, "rats": {"test_system": "rats", "conditions": "ref [11], cited from earlier work; for cocaine self-administration (drug intake): intra-VTA infusion, rats"}, "p38": {"test_system": "p38", "assay": "p38 activation", "type": "cell-based, Chinese hamster", "conditions": "western blot, ± SD, mean of 3 separate experiments (Figure 5D)"}, "[2]": {"test_system": "kappa opioid receptor (KOR)", "assay": "PathHunter β-arrestin recruitment assay in Drx-KOR cells", "type": "cell-based", "conditions": "dynorphin, various concentrations, 90 min at 37°C; Drx-KOR cells (Figure 5A)"}},
  "data": [
    {"compound": "O=S(=O)(NCCNC/C=C/c1ccc(Br)cc1)c1cccc2cnccc12", "note": "[H89]", "values": [
      {"measurement": "effect of PKA inhibitor on OX1R attenuation of KOR Gαi signaling", "setting": "[1]; PKI or H89, 2 h, CHO-KOR + HA-OX1R, 500 nM orexin, 1 μM dynorphin (Figure 2B)", "result": "did not affect OX1R attenuation of KOR Gαi signaling"}
    ]},
    {"compound": "Cc1nc2ccc(NC(=O)Nc3ccnc4cccnc34)cc2o1", "note": "[SB-334867]", "values": [
      {"measurement": "cocaine self-administration (drug intake)", "setting": "rats", "result": "reduces cocaine self-administration in rats"}
    ]},
    {"compound": "Oc1ccc2c3c1O[C@H]1c4[nH]c5c(c4C[C@@]4(O)[C@@H](C2)N(CC2CC2)CC[C@]314)C[C@@]1(O)[C@H]2Cc3ccc(O)c4c3[C@@]1(CCN2CC1CC1)[C@H]5O4", "note": "[norBNI]", "values": [
      {"measurement": "cocaine self-administration (drug intake)", "setting": "rats", "result": "has no effect on drug intake"},
      {"measurement": "effect on ability of SB-334867 to reduce drug intake", "setting": "rats; norBNI with SB-334867, rats", "result": "blocks the ability of SB-334867 to reduce drug intake"}
    ]},
    {"compound": "Dynorphin A (1-17) (YGGFLRRIRPKLKWDNQ; Dynorphin A(1-17); UniProt P01213 207-223, looked up)", "values": [
      {"measurement": "increase in phospho-p38/total p38", "setting": "p38; 1 μM dynorphin, 15 min, CHO-KOR cells, relative to untreated", "result": "1.76 ± 0.12", "unit": "fold"},
      {"measurement": "increase in phospho-p38/total p38", "setting": "p38; CHO-KOR + HA-OX1R, 500 nM orexin 10 min prior to dynorphin, relative to untreated cells", "result": "2.82 ± 0.36", "unit": "fold"},
      {"measurement": "KOR response to dynorphin (cAMP) on transfection and activation of 5HT2aR", "setting": "[1]; 1 μM dynorphin, CHO-KOR + 5HT2aR, activated (Figure 1A)", "result": "does not affect the KOR response to dynorphin"},
      {"measurement": "β-arrestin recruitment to KOR (luminescence)", "setting": "[2]", "result": "concentration-dependent increase in luminescence"}
    ]}
  ]
}
